Measured values reported in patent US11337970B2, “Inhibitors of indoleamine 2,3-dioxygenase and methods of their use” (BRISTOL-MYERS SQUIBB COMPANY, priority 2016, dated 2022).

The compounds below were run against T1, indoleamine 2,3-dioxygenase (IDO) (Homo sapiens, UniProt P14902) (assay: HeLa cell-based indoleamine 2,3-dioxygenase (IDO) assay (kynurenine production)). Conditions: HeLa cells, IFNγ 25 ng/mL, 48 hour incubation, absorbance at 480 nm.
T1 construct: host or cells: HeLa cells stimulated with IFNγ (25 ng/mL)
T1 sequence (P14902 whole entry): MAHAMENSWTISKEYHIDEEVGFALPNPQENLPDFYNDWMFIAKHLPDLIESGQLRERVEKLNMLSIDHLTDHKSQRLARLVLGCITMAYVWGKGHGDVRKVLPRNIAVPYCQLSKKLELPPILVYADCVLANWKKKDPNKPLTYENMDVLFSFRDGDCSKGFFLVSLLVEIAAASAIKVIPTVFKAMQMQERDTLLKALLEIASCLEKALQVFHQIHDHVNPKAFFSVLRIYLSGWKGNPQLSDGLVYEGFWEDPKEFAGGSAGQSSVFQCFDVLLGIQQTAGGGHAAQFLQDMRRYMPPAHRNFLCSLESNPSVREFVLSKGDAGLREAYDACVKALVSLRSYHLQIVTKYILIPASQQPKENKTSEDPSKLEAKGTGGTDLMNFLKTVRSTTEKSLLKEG
Protocol: Assessment of inhibitor activity in HeLa cell-based indoleamine 2,3-dioxygenase (IDO) assay:
HeLa (ATCC® CCL-2) cells were obtained from the ATCC® and cultured in Dulbecco's Modified Eagle Medium supplemented with 4.5 g/L glucose, […] (#10-013-CV, Corning), 2 mM L-alanyl-L-glutamine dipeptide (#35050-061, Gibco), 100U/mL penicillin, 100 μg/mL streptomycin (#SV30010, HyClone) and 10% fetal bovine serum (#SH30071.03 HyClone). Cells were maintained in a humidified incubator at 37° C. in 5% CO2.
IDO activity was assessed as a function of kynurenine production as follows: HeLa cells were seeded in a 96-well culture plate at a density of 5,000 cells/well and allowed to equilibrate overnight. After 24 hours, the media was aspirated and replaced with media containing IFNγ (#285-IF/CF, R&D Systems) at a final concentration of 25 ng/mL. A serial dilution of each test compound was added to the cells in a total volume of 200 μL of culture medium. After a further 48 hour incubation, 170 μL of supernatant was transferred from each well to a fresh 96-well plate. 12.1 μL of 6.1N trichloroacetic acid (#T0699, Sigma-Aldrich) was added to each well and mixed, followed by incubation at 65° C. for 20 minutes to hydrolyze N-formylkynurenine, the product of indoleamine 2,3-dioxygenase, to kynurenine. The reaction mixture was then centrifuged for 10 mins at 500×g to sediment the precipitate. 100 μL of the supernatant was transferred from each well to afresh 96-well plate. 100 μl of 2% (w/v) p-dimethylaminobenzaldehyde (#15647-7, Sigma-Aldrich) in acetic acid (#A6283, Sigma-Aldrich) was added to each well mixed and incubated at room temperature for 20 mins. Kynurenine concentrations were determined by measuring absorbance at 480 nm and calibrating against an L-kynurenine (#K8625, Sigma-Aldrich) standard curve using a SPECTRAMAX® M2e microplate reader (Molecular Devices). The percentage activity at each inhibitor concentration was determined and IC50 values assessed using nonlinear regression.
Cc1ccc2nc([C@H](C)[C@H]3CC[C@@H](c4ccnc5ccc(F)cc54)CC3)cn2n1 [Example 30, 6-fluoro-4-((cis)-4-((R)-1-(6-methylimidazo[1,2-b]pyridazin-2-yl)ethyl)cyclohexyl)quinoline] showed an IC50 of 96.6 nM. In the case of C[C@@H](c1nc2c(F)c(F)c(F)c(F)c2[nH]1)[C@H]1CC[C@@H](c2ccnc3ccc(F)cc32)CC1 [Example 43, 6-fluoro-4-((1S,4s)-4-((R)-1-(4,5,6,7-tetrafluoro-1H-benzo[d]imidazol-2-yl)ethyl)cyclohexyl) quinoline], the IC50 is reported as 3.5 nM. Work on CC(c1nc2ccc(Cl)cc2[nH]1)C1CCC(c2ccnc3ncccc23)CC1 (mixture of isomers) [Example 34, (±)-Cis and trans-(4-(1-(6-chloro-1H-benzo[d]imidazol-2-yl)ethyl)cyclohexyl)-1,8-naphthyridine] yielded an IC50 of 68.1 nM. C[C@@H](c1cn2ncccc2n1)[C@H]1CC[C@@H](c2ccnc3ccc(F)cc32)CC1 [Example 31, 6-fluoro-4-((cis)-4-((R)-1-(imidazo[1,2-b]pyridazin-2-yl)ethyl)cyclohexyl)quinoline] gave an IC50 of 607 nM. In the case of C[C@@H](c1nc2cc(C(F)(F)F)ccc2[nH]1)[C@H]1CC[C@@H](c2ccnc3ccc(F)cc32)CC1 [Example 45, 6-fluoro-4-((1S,4s)-4-((R)-1-(5-(trifluoromethyl)-1H-benzo[d]imidazol-2-yl)ethyl)cyclohexyl) quinoline], the IC50 is reported as 3.1 nM. C[C@@H](c1nc2cc(C(F)(F)F)cc(C(F)(F)F)c2[nH]1)[C@H]1CC[C@@H](c2ccnc3ccc(F)cc32)CC1 [Example 47, 4-((1S,4s)-4-((R)-1-(5,7-bis(trifluoromethyl)-1H-benzo[d]imidazol-2-yl)ethyl)cyclohexyl)-6-fluoroquinolme] showed an IC50 of 45.6 nM. For C[C@H](c1nc2ccc(Cl)cc2[nH]1)[C@H]1CC[C@@H](c2ccnc(C(F)(F)F)c2)CC1 (single isomer, unassigned) [Example 39-2, 6-chloro-2-(1-(4-(2-(trifluoromethyl)pyridin-4-yl)cyclohexyl)ethyl)-1H-benzo[d]imidazole], the IC50 was 75.4 nM. C[C@H](c1nc2ccc(Cl)cc2[nH]1)[C@H]1CC[C@@H](c2ccnc(C(F)(F)F)c2)CC1 (single isomer, unassigned) [Example 39-3, 6-chloro-2-(1-(4-(2-(trifluoromethyl)pyridin-4-yl)cyclohexyl)ethyl)-1H-benzo[d]imidazole] showed an IC50 of 117 nM. With C[C@@H](c1nc2ccc(Cl)cc2c(=O)[nH]1)[C@H]1CC[C@@H](c2ccnc3ccc(F)cc32)CC1 [Example 29, 6-chloro-2-((R)-1-((cis)-4-(6-fluoroquinolin-4-yl)cyclohexyl)ethyl)quinazolin-4(3H)-one] the IC50 was 143 nM. C[C@H]([C@H]1CC[C@@H](c2ccnc3ccc(F)cc32)CC1)n1cnc2ccccc2c1=O [Example 28, 3-((R)-1-((cis)-4-(6-fluoroquinolin-4-yl)cyclohexyl)ethyl)quinazolin-4(3H)-one] showed an IC50 of 834 nM. C[C@@H](c1nc2cc(F)c(F)cc2[nH]1)[C@H]1CC[C@@H](c2ccnc3ccc(F)cc32)CC1 [Example 40] gave an IC50 of 2.7 nM. With CCOCC(c1nc2ccc(Cl)cc2[nH]1)[C@H]1CC[C@@H](c2ccnc(F)c2C)CC1 (single isomer, unassigned) [Example 25-1, 6-chloro-2-(2-ethoxy-1-((cis)-4-(2-fluoro-3-methylpyridin-4-yl)cyclohexyl)ethyl)-1H-benzo[d]imidazole] the IC50 was 10.2 nM. Work on CC(c1nc2ccc(Cl)cc2[nH]1)C1CCC(c2ccnc3ncccc23)CC1 (single isomer, unassigned) [Example 35-2] yielded an IC50 of 14.3 nM. Compound CC(c1nc2ccc(Cl)cc2[nH]1)C1CCC(c2ccnc3ncccc23)CC1 (stereo not drawn) [Example 35-1] has an IC50 of 1000 nM. With CCC(c1nc2ncc(Cl)cc2[nH]1)[C@H]1CC[C@@H](c2ccnc(F)c2C)CC1 (single isomer, unassigned) [Example 24-2, 6-chloro-2-(1-((cis)-4-(2-fluoro-3-methylpyridin-4-yl)cyclohexyl)-3-propyl)-1H-imidazo[4,5-b]pyridine] the IC50 was 2.7 nM. Work on COC(=O)c1ccc2[nH]c([C@H](C)[C@H]3CC[C@@H](c4ccnc5ccc(F)cc54)CC3)nc2c1 [Example 50, methyl 2-((R)-1-((1s,4S)-4-(6-fluoroquinolin-4-yl)cyclohexyl)ethyl)-1H-benzo[d]imidazole-5-carboxylate] yielded an IC50 of 2.1 nM.

The compounds below were run against T2, human IDO1 (Homo sapiens, UniProt P14902) (assay: IDO inhibition assay in HEK293 cells stably expressing human IDO1 (kynurenine, Ehrlich reagent)). Conditions: 20 hours incubation, absorbance at 490 nm, read-out: IDO1 HEK Human IC50.
T2 construct: expressed in transfected cells
T2 sequence (P14902 whole entry): as above
Assay type: cell-based
Protocol: HEK293 cells were transfected with a pCDNA-based mammalian expression vector harboring human IDO1 cDNA (NM 002164.2) by electroporation. They were cultured in medium (DMEM with 10% FBS) containing 1 mg/ml G418 for two weeks. Clones of HEK293 cells that stably expressed human IDO1 protein were selected and expanded for IDO inhibition assay.
The human IDO1/HEK293 cells were seeded at 10,000 cells per 50 μL per well with RPMI/phenol red free media contains 10% FBS in a 384-well black wall clear bottom tissue culture plate (Matrix Technologies LLC) 100 nL of certain concentration of compound was then added to each well using ECHO liquid handling systems. The cells were incubated for 20 hours in 37° C. incubator with 5% CO2.
The compound treatments were stopped by adding trichloroacetic acid (Sigma-Aldrich) to a final concentration at 0.2%. The cell plate was further incubated at 50° C. for 30 minute. The equal volume supernatant (20 μL) and 0.2% (w/v) Ehrlich reagent (4-dimethylaminobenzaldehyde, Sigma-Aldrich) in glacial acetic acid were mixed in a new clear bottom 384-well plate. This plate was then incubated at room temperature for 30 minute. The absorbance at 490 nm was measured on Envision plate reader.
Compound IC50 values were calculated using the counts of 500 nM of a reference standard treatment as one hundred percent inhibition, and counts of no compound but DMSO treatment as zero percent inhibition.
With C[C@@H](Nc1nc2ccccc2[nH]1)[C@H]1CC[C@@H](c2ccnc3ccc(F)cc32)CC1 [Example 12, N-((R)-1-((cis)-4-(6-fluoroquinolin-4-yl)cyclohexyl)ethyl)-1H-benzo[d]imidazol-2-amine] the IC50 was 139 nM. CCC(c1nc2ccc(Cl)cc2[nH]1)[C@H]1CC[C@@H](Oc2ccnc3ccccc23)CC1 (stereo partly drawn) [Example 52, 4-(((1s,4s)-4-(1-(6-chloro-1H-benzo[d]imidazol-2-yl)propyl)cyclohexyl)oxy)quinoline] gave an IC50 of 697 nM. With “(+/−)-Cis and trans-6-chloro-2-(1-(4-(2-(trifluoromethyl)pyridin-4-yl)cyclohexyl)propyl)-1H-benzo[d]imidazole [Example 36]” the IC50 was 26.1 nM. Compound CC[C@H](c1nc2ccc(Cl)cc2[nH]1)[C@H]1CC[C@@H](c2ccnc3ccc(F)cc32)CC1 (single isomer, unassigned) [Example 15-2, 4-(4-(1-(6-chloro-1H-benzo[d]imidazol-2-yl)propyl)cyclohexyl)-6-fluoroquinoline] has an IC50 of 110 nM. C[C@@H](c1nc2cnccc2[nH]1)[C@H]1CC[C@@H](c2ccnc3ccc(F)cc32)CC1 [Example 5, 4-((cis)-4-((R)-1-(1H-imidazo[4,5-c]pyridin-2-yl)ethyl)cyclohexyl)-6-fluoroquinoline] showed an IC50 of 105 nM. Work on CCC(c1nc2ccc(Cl)cc2[nH]1)[C@H]1CC[C@H](Oc2ccnc3ccccc23)CC1 (mixture of isomers) [Example 13, 4-(((trans)-4-(1-(6-chloro-1H-benzo[d]imidazol-2-yl)propyl)cyclohexyl)oxy)quinoline] yielded an IC50 of 3.4 nM. Compound C[C@@H](Nc1nc2ccc(Cl)cc2s1)[C@H]1CC[C@@H](c2ccnc3ccc(F)cc32)CC1 [Example 8, 6-chloro-N—((R)-1-((cis)-4-(6-fluoroquinolin-4-yl)cyclohexyl)ethyl)benzo[d]thiazol-2-amine] has an IC50 of 730 nM. C[C@@H](Nc1nc2ccccc2s1)[C@H]1CC[C@@H](c2ccnc3ccc(F)cc32)CC1 [Example 10] showed an IC50 of 194 nM. Compound CCC(c1nc2ccc(Cl)cc2[nH]1)[C@H]1CC[C@@H](Oc2ccnc3ccccc23)CC1 (stereo partly drawn) [Example 14, 4-(((cis)-4-(1-(6-chloro-1H-benzo[d]imidazol-2-yl)propyl)cyclohexyl)oxy)quinoline] has an IC50 of 322 nM. For CC[C@H](c1nc2ccc(Cl)cc2[nH]1)[C@H]1CC[C@@H](c2ccnc3ccc(F)cc32)CC1 (single isomer, unassigned) [Example 15-1, 4-(4-(1-(6-chloro-1H-benzo[d]imidazol-2-yl)propyl)cyclohexyl)-6-fluoroquinoline], the IC50 was 40.6 nM. Compound COc1ccc2nc(N[C@H](C)[C@H]3CC[C@@H](c4ccnc5ccc(F)cc54)CC3)[nH]c2c1 [Example 9, N-((R)-1-((cis)-4-(6-fluoroquinolin-4-yl)cyclohexyl)ethyl)-6-methoxy-1H-benzo[d]imidazol-2-amine] has an IC50 of 263 nM.
